Source: patent US10561638B2, “Methods for treating dependence” (Biotie Therapies, Inc., priority 2007, dated 2020)
Entries after “also recorded” stand apart in the source; their conditions may differ.

How the values were obtained:
[1] = test system: tissue noradrenaline and dopamine content; experiment: Tissue catecholamines in SHRs after three oral doses 12 h apart; format: in vivo, spontaneously hypertensive rats; settings: for increase in DA/NE ratio: 30 mg/kg; for dopamine vs vehicle / dopamine/norepinephrine ratio vs vehicle / norepinephrine vs vehicle: 30 mg/kg x3
Procedure: Male SHRs (15-16 weeks old, Charles River, Wilmington, Mass., USA) were used in in vivo studies. On the day of the study, animals were weighed and randomly assigned to be dosed with either vehicle (control) or the appropriate dose of nepicastat (3, 10, 30 or 100 mg·kg^−1, po) or Compound B (30 mg·kg^−1, po) three consecutive times, twelve hours apart. At six hours after the third dose, the rats were anaesthetized with halothane, decapitated and tissues (cerebral cortex, mesenteric artery and left ventricle) were rapidly harvested, weighed, placed in iced perchloric acid (0.4 M), frozen in liquid nitrogen and stored at −70° C. until subsequent analysis. To quantify noradrenaline and dopamine concentrations, tissues were homogenized by brief sonication and centrifuged at 13,000 rpm for 30 minutes at 4° C. The supernatant, spiked with 3,4-dihydroxybenzylamine (internal standard), was assayed for noradrenaline and dopamine by HPLC using electrochemical detection.
Nepicastat was used in in vivo biochemical studies to study the effects in spontaneously hypertensive rats (SHRs) and normal beagle dogs. On the day of the study, the animals were weighed and randomly assigned to receive either placebo (vehicle) or the appropriate dose of nepicastat. Each rat was dosed orally three times, 12 h apart, beginning in the morning. At 6 h after the third dose, the rats were anesthetized with halothane, decapitated, and the tissues (cerebral cortex, mesenteric artery and left ventricle) were rapidly harvested, weighed, placed in iced 0.4 M perchloric acid, frozen in liquid nitrogen and stored at −70° C. until analysis. Tissue NE and DA concentrations were assayed by HPLC using electrochemical detection. Male beagle dogs (10-16 kg, Marshall Farms USA Inc, North Rose, N.Y.) were used in the study. On the day of the study, dogs were randomly assigned to receive either placebo (empty capsule) or the appropriate dose of nepicastat. Each dog was dosed twice a day for 4.5 days. 6 h after the first dose on day 5, the dogs were euthanized with pentobarbital and the tissues (cerebral cortex. renal artery, left ventricle) harvested, weighed, placed in iced 0.4 M perchloric acid, frozen in liquid nitrogen and stored at −70° C. until analysis. Tissue NE and DA concentrations were assayed by HPLC using electrochemical detection.
Fifteen to sixteen week old male spontaneously hypertensive rats (SHRs) (Charles River Labs) were allowed food and water ad libitum. Animals were weighed and randomly assigned to one of the following treatment groups: 1) distilled water vehicle (dH2O), or nepicastat at 3, 10, 30, and 100 mg/kg, 2) Compound B at 30 mg/kg in distilled water, or 3) PEG 400:dH2O vehicle or SKF-102698 at 30 mg/kg. Each rat was dosed orally (p.o., using a gavage needle) three times 12 hours apart, beginning in the morning. At six hours after the third dose rats were anesthetized with halothane, decapitated, and the cortex, mesenteric artery, and left ventricle were rapidly harvested, weighed, placed in iced 0.4 M perchioric acid, frozen in liquid nitrogen, and stored at −70° C. Tissue dopamine and norepinephrine concentrations were assayed by high performance liquid chromatography and electrochemical detection.
Four series of statistical analyses were performed. The first series compared the rats treated with various doses of nepicastat, and Compound B at 30 mg/kg to the vehicle control animals. A nonparametric one-way analysis of variance (ANOVA) with factor Dose and blocking factor Day was performed for each tissue and strain separately. […] Pairwise analysis between treated and controls at each dose were carried out using Dunnett's test to control the experiment-wise error rate. The second statistical test compared SKF-102698 to the PEG-dH2O vehicle treated group using a nonparametric t-test. The third statistical test compared Compound B to nepicastat at doses of 30 mg/kg using a nonparametric t-test.

SHRs = experiment: 30-day radio-telemetry study in SHRs

Which results are given for NCc1c[nH]c(=S)n1[C@@H]1CCc2c(F)cc(F)cc2C1 [Compound B, (R)-5-Aminomethyl-1-(5,7-difluoro-1,2,3,4-tetrahydronaphth-2-yl)-2,3-dihydro-2-thioxo-1H-imidazole]?
increase in DA/NE ratio ([1]; cerebral cortex): 1.1 fold; dopamine vs vehicle ([1]; cerebral cortex): significant increase; dopamine/norepinephrine ratio vs vehicle ([1]; cerebral cortex): no effect; norepinephrine vs vehicle ([1]; cerebral cortex): significant increase; increase in DA/NE ratio ([1]; left ventricle): 3.5 fold; dopamine vs vehicle ([1]; left ventricle): significant increase; dopamine/norepinephrine ratio vs vehicle ([1]; left ventricle): significant increase; norepinephrine vs vehicle ([1]; left ventricle): did not significantly lower; increase in DA/NE ratio ([1]; mesenteric artery): 2.6 fold; dopamine vs vehicle ([1]; mesenteric artery): significant increase; dopamine/norepinephrine ratio vs vehicle ([1]; mesenteric artery): significant increase; norepinephrine vs vehicle ([1]; mesenteric artery): did not significantly lower

CCOC(=O)[C@H](CCc1ccccc1)N[C@@H](C)C(=O)N1CCC[C@H]1C(=O)O [enalapril, reference compound] was tested. Which body weights (SHRs; enalapril 1 mg/kg) did it give?
Its body weights is “slightly decreased body weight”.

What about the heart rate (SHRs; enalapril 1 mg/kg) of the same molecule?
Its heart rate is “did not affect HR”.

And the left ventricular mass (SHRs; enalapril 1 mg/kg)?
Its left ventricular mass is “did not regress the hypertrophy”.

And the “antihypertensive effect of mono-administration” value (SHRs; enalapril 1 mg/kg or nepicastat 30 mg/kg (Series III))?
Its value is “failed to lower blood pressure; also recorded: only a small antihypertensive effect; also recorded: did not induce significant antihypertensive effects”.

And the “antihypertensive effect throughout the study” value (SHRs; enalapril 10 mg/kg)?
The value was −20 to −30 mmHg.

What about the body weights (SHRs; enalapril 10 mg/kg) of the same molecule?
Its body weights is “significantly decreased (p<0.05) or had no effect”.

And the heart rate (SHRs; enalapril 10 mg/kg)?
Its heart rate is “transient small tachycardia”.

What about the left ventricular mass (SHRs; enalapril 10 mg/kg) of the same molecule?
Its left ventricular mass is “significantly reduced left ventricular mass in Series II, but not in Series I”.

And the “maximal decrease in MBP” value (SHRs; enalapril 10 mg/kg, within 1 hr after dosing on day 5)?
The value was −29 mmHg.
